# Assay results from patent publication US6362207B1, “Methods of treating viral infections with benzimidazoles” (priority 1995, dated 2002).
# Columns and labels:
# [1] = system: Pancreas (Mia-PaCa); assay: Pancreas (Mia-PaCa) model, tumor weight; format: in vivo, mice; settings: 80 mg/kg i.p. on days 1,4,7 and 10; c1 = day 40
# Procedure: The dose response effect of carbendazim in mice infected with various cancer types was studied in standard screening tests.
# The results of these studies conducted to study the dosage response of carbendazim on various cancer types are summarized below. […] Efficacy of carbendazim has been shown in the following cancers:
# In the Pancreas (Mia-PaCa) model, carbendazim at 3000 and 4000 (mg/kg, twice weekly) is as good as or better than gemcitabine. At 2000 mg/kg the carbendazim was not as effective after 21 days. Gemcitabine was given on days 1,4,7 and 10 i.p.; the carbendazim was given p.o. twice weekly.
# [2] = system: MCF-7L breast line; assay: MCF-7L breast line study versus Navelbine and Taxol, tumor weight; format: in vivo, mice; settings: 16 mg/kg qd×5 i.p., carbendazim treatment begun on day 130; c1-c4 = day 236, 239, 245, 249
# [3] = format: in vivo; settings: SK-MES, positive control 20 mg/kg, 5 doses
# Description: Additional in vivo cancer studies are presented in a tabular form below. The data is presented in the following format—dose regimen in parenthesis, dosage in mg/kg: tumor growth suppression (tg supp.), toxic deaths/number of test subjects (deaths), % weight change (wt).
# [4] = system: HT29 colon tumor cells; assay: MTT cell viability test, colon tumor cells; format: cell-based, human; settings: HT-29, control 0.398
# [5] = system: A549 lung tumor cells; assay: MTT cell viability test, lung tumor cells; format: cell-based, human; settings: A-549, control 0.600
# [6] = system: breast tumor cells (MCF-7); assay: Related study of tumor cell killing (optical density); format: cell-based; settings: control 0.245
# Description: In a related study using lung tumor cells (A-549) breast tumor cells (MCF-7) and colon tumor cells (HT-29), thiabeadazole effectively killed these cells.
# [7] = system: B-16 mouse melanoma; settings: mouse, in vivo
# Procedure: The data in Tables 1, 2 and 3 are reported in T/C which is interpreted using the following scale:
# long term survivors for P388 is >30 days, for B16 it is >60 days. The NCI Measure of Success is T/C=125.
# This study was performed in black mice injected i.p. with B-16 mouse melanoma which many researchers believe is the most predictive model for efficacy in humans. […] Death is the end point in this model.
# [8] = system: P388; assay: P-388 model for leukemia, T/C; format: in vivo, mice; settings: mouse, in vivo
# Description: In the P-388 model for leukemia there was a dose responsive effect and the results were good.
# The NCI Measure of Success is T/C=125.
# [9] = system: MX1 breast cancer tumors implanted subcutaneously; assay: Tumor growth reduction in mice models (Table 5), breast; format: in vivo; settings: implanted subcutaneously under the mice skin
# [10] = system: HIV-1 (CEM-SK1, U937-SK1, H9-SK1, U1 and ACH2 cells); assay: HIV Virus Replication Study in chronically infected cells; format: cell-based
# Procedure: Thiabendazole was tested in chronically infected HIV virus. These cell populations contain integrated copies of the HIV genome and constituitively produce HIV at relatively high levels (CEM-SK1, U937-SK1 and H9-SK1 from Frederick Research Center, Maryland) or are latently infected and only produce virus after stimulation with phorbol esters, tumor necrosis factor or IL6 (U1 and ACH2).
# Toxicity to the chronically infected cells was similar to that observed with the uninfected cells.
# After 28 days of treatment on chronically infected cells, the toxicity of the compound to the target cells appeared similar in both uninfected and chronically infected cells.
# This reduction of virus production occurs at concentrations which are nontoxic to the host cell and which have no effect on the synthesis of cellular DNA, RNA and protein.
# [11] = system: HIV, chronically infected cells; assay: Virus Resistance Studies; format: cell-based; settings: cultures treated at 40 and 80 μg/ml
# [12] = system: HIV, chronically infected cells; assay: Reappearance of virus production from chronically infected cells previously treated; format: cell-based
# [13] = system: HIV, pretreated chronically infected cells; format: cell-based; settings: irrespective of the culture conditions
# [14] = system: HIV-1 in U1 cells (promonocytic, from U937); assay: Additional chronic HIV studies, monocytes; format: cell-based; settings: 60 μg/ml
# Procedure: (§1) Chronic HIV-1 infected cells U1 were derived from an acute HIV-1 infection of the promonocytic cell line, U937. The chronic HIV-1 infected cells, ACH-2 were derived from an acute HIV-1 infection of the T cell line, A3.01.
# (§2) These cells were cultured in medium and the phorbol ester, PMA. PMA causes the cells (both U1 and ACH-2) to be activated and not divide but it also causes the U-1 cells to differentiate. […] Cell viability was measured when these cell lines were treated with the test compound.
# (§3) Both cell lines constituitively produce a small amount of HIV-1. ACH-2 cell lines tend to produce more HIV-1 than U1 cells as shown by p24 ELISA. When either cell line is cultured in the presence of PMA there is an increase in the quantity of HIV-1 produced as measured by the p24 antigen ELISA.
# (§4) In addition, the number of […] positive HIV mRNA expressing cells per microscopic field is measured. Comparisons can be made from these numbers since the same number of cells were adhered to the glass slides for each drug concentration 10×10^6 cells/ml).
# (§5) These cells were treated with test samples. […] The positive control was interferon which suppressed HIV monocytes replication by 80%.
# [15] = system: HIV-1 in ACH-2 cells (T cell line A3.01); assay: Additional chronic HIV studies, T cells; format: cell-based; settings: 60 μg/ml
# Procedure: as §1, §2, §3, §4, §5
# [16] = system: HIV; assay: microbe, parasite or virus in culture; format: cell-based; settings: Human immunodeficiency virus 1; 60 μg/ml; read-out: inhibition of viral replication
# [17] = system: herpes; assay: In vivo herpes screening test; design: species or system mice
# Procedure: The positive control was acyclovir at 75 mg/kg dose; 60% of the mice survived with a mean death date of 17.2 days.
# [18] = system: influenza; assay: In vitro influenza model; format: cell-based
# [19] = system: influenza; assay: In vivo model for influenza; design: species or system mice
# Procedure: The positive control was amantadine (75 mg/kg) with 100% of the mice surviving for 21 days. 2-(Methoxycarbonylamino)benzimidazole was not active in the same test.
# [20] = system: herpes; assay: In vitro herpes model; format: cell-based
# [21] = system: Human Tumor Colony Forming Units; assay: In Vitro Human Tumor Colony Forming Units Test
smiles,measurement,setting,value
"Nc1ccn([C@@H]2O[C@H](CO)[C@@H](O)C2(F)F)c(=O)n1 [Gemcitabine, reference compound]",tumor weight,[1],503.7 mg
CC(=O)O[C@H]1C(=O)[C@@]2(C)[C@H]([C@H](OC(=O)c3ccccc3)[C@]3(O)C[C@H](OC(=O)[C@H](O)[C@@H](NC(=O)c4ccccc4)c4ccccc4)C(C)=C1C3(C)C)[C@]1(OC(C)=O)CO[C@@H]1C[C@@H]2O [Taxol],tumor weight,[2],0 mg
same,% weight change (wt),[3],+1%
same,toxic deaths/number of test subjects (deaths),[3],0/10
same,tumor growth suppression (tg supp.),[3],75%
"c1ccc2[nH]c(-c3cscn3)nc2c1 [thiabendazole, 2-(4-thiazolyl)-1-H-benzimidazole]",Optical Density,[4]; 0.87 ppm,0.852
same,Optical Density,[4]; 3.46 ppm,0.713
same,Optical Density,[4]; 17.3 ppm,0.204
same,Optical Density,[4]; 35 ppm,0.011
same,Optical Density,[4]; 173 ppm,0.005
same,Optical Density,[5]; 0.87 ppm,1.32
same,Optical Density,[5]; 3.46 ppm,1.12
same,Optical Density,[5]; 17.3 ppm,0.851
same,Optical Density,[5]; 35 ppm,0.411
same,Optical Density,[5]; 173 ppm,0.007
same,Optical Density,[6]; 0.87 ppm,0.507
same,Optical Density,[6]; 3.46 ppm,0.466
same,Optical Density,[6]; 17.3 ppm,0.258
same,Optical Density,[6]; 35 ppm,0.025
same,Optical Density,[6]; 173 ppm,0.007
same,activity against B16,[7],no activity
same,activity against P388,[8],no activity
same,activity against MX1 breast cancer tumors,[9],no activity
same,concentration at which stable reductions in virus production were observed,[10]; after 28 days of treatment,greater than 10 μg/ml
same,concentrations that inhibited virus production,[10]; chronically infected cells,1 to 10 µg/mL
same,virus production,[11],totally suppressed
same,day by which virus production resumed after washing free of compound,[12]; 40 μg/ml,≤ 12 days
same,day at which virus production was observed after washing free of compound,[12]; highest concentrations,~70 days
same,time until virus production resumed after washing free of compound,[12]; lower concentrations (20 μg/ml and 4 μg/ml),≤ 4 days
same,"virus production from pretreated cell populations, Groups 1-3",[13],identical
same,suppression of replication in the HIV monocytes,[14],74%
same,increase of T-cell HIV replication,[15],26%
same,inhibition at 60 µg/mL,[16],98%
same,mean death date,[17]; 100 mg/kg,9.2
same,mice survived,[17]; 100 mg/kg,50%
same,mean death date,[17]; 200 mg/kg,10.4
same,mice survived,[17]; 200 mg/kg,10%
same,activity,[18],no activity
same,mean death date,[19]; 100 mg/kg,8.7 days
same,mice survived,[19]; 100 mg/kg,62%
same,mean death date,[19]; 200 mg/kg,8 days
same,mice survived,[19]; 200 mg/kg,67%
same,activity,[20],no activity
same,positive results / tumors tested,"[21]; 1 Hour Exposure, 0.5 μg/ml",0/3
same,positive results / tumors tested,"[21]; 1 Hour Exposure, 5.0 μg/ml",0/3
same,positive results / tumors tested,"[21]; 1 Hour Exposure, 50.0 μg/ml",0/3
same,positive results / tumors tested,"[21]; Continuous Exposure, 0.5 μg/ml",1/10
same,positive results / tumors tested,"[21]; Continuous Exposure, 5.0 μg/ml",2/10
same,positive results / tumors tested,"[21]; Continuous Exposure, 50.0 μg/ml",7/10
